Data reported in patent US7858349B2, “Anti-cancer compounds” (The Regents of the University of Colorado, priority 1999, dated 2010).

Columns and labels:
[1] = tested on: SHP-77 SCLC cells; assay: Inhibition of SHP-77 tumor growth in vivo in nude mice; design: species or system athymic nude mice; details: 5 mg/kg/every second day or 10 mg/kg/every fourth day
Description: Compounds having high in vitro cytotoxic activity were tested against implanted tumors in vivo. Athymic nude mice were implanted subcutaneously with suspensions (2 million SHP-77 SCLC cells, 1 million A549 NSCLC cells or 1.5 million PC3 PC cells) in Matrigel suspension. On the eighth day after tumor implantation groups of 5 mice bearing implants were injected intraperitoneally with the compounds being tested at 5 mg/kg/every second day or at 10 mg/kg/every fourth day; control animals were injected with an equal volume of isotonic saline. Less soluble compounds were initially dissolved in dimethyl sulfoxide (DMSO) and diluted with medium. In those cases the control injections contained the same concentration of DMSO. Tumor size was measured with a caliper three times per week. Tumor volume was calculated by the formula: Volume(cc)=3.14×(length)×(width)^2/6 At autopsy tumors were removed and weighed. Tumor inhibition was calculated on both weight and measurement basis. In each Table, an IC50 value of “0” represents no detectable anti-cancer activity for a drug in a given cell line and “Stim.” indicates the observation of a stimulatory activity on the growth of the cancer cell line.

[2] = tested on: implanted tumors; assay: In vivo anti-cancer activity after oral administration; design: species or system nude mice
[3] = tested on: PC3 PC cells; assay: Inhibition of PC3 tumor growth in vivo in nude mice; design: species or system athymic nude mice; details: nude mice; 5 mg/kg/every second day or 10 mg/kg/every fourth day
How it was run: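 Groups of 5 nude mice dosed i.p. at 10 mg/kg every fourth day or 5 mg/kg every second day, beginning 8 days after s.c. implantation of PC3 (1.5 million), A549 (1 million) or SHP-77 (2 million) cells in Matrigel; saline or DMSO-matched controls. Tumor weight at necropsy and caliper-derived volume both used to calculate inhibition.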

[4] = tested on: cultured human cancer cell lines; assay: MTT assay for cell survival, cell line not stated; assay type: cell-based; details: 4 days, read-out: concentration causing 50% cell death

Pentafluorocinnamoyl-O-(2,6-dichlorobenzyl)tyrosine-4-amino-2,2,6,6-tetramethylpiperidine [Analog M570, reference compound]
inhibition of growth of the SCLC line SHP-77 [1]: 85%
in vivo anti-cancer activity after oral administration [2]: active
inhibition of PC cell line PC3 tumors [3]: 65%
IC50 [4]: 150 nM
